The text below walks through data of patent US20250066344A1 (BRISTOL-MYERS SQUIBB COMPANY, priority 2021, published 2025).

For the assay, the target named is T1, human RXFP1 (Homo sapiens, UniProt Q9HBX9).
T1 construct: expressed in transfected cells
T1 sequence (Q9HBX9 1-757): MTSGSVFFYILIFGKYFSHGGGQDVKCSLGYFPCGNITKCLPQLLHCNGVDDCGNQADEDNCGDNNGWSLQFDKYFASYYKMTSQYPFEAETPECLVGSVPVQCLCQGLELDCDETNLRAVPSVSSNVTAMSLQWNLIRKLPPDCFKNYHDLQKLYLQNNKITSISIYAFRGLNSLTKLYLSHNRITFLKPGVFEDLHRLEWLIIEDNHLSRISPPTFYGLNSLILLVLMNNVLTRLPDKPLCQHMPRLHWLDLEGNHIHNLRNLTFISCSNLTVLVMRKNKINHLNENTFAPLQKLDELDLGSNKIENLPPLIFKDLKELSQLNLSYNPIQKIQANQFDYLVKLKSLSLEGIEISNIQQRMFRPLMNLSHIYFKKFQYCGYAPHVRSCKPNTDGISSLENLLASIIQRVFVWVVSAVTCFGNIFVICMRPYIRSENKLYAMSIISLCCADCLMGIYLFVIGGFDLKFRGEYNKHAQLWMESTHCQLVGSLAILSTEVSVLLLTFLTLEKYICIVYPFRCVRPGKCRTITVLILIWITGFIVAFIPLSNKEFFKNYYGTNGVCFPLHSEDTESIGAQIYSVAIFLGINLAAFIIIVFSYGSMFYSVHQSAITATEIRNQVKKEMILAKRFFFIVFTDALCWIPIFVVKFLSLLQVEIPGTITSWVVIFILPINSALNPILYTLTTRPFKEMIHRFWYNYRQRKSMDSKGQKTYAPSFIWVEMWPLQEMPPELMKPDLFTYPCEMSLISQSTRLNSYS
The assay can be described thus: RXFP1 cyclic adenosine monophosphate (cAMP) assay, hRXFP1 HEK293. Particulars: HEK293 cells stably expressing human RXFP1; 30 min at room temperature; HTRF cAMP. The class given is cell-based. Here is the method:
RXFP1 Cyclic Adenosine Monophosphate (cAMP) Assays. Human embryonic kidney cells 293 (HEK293) cells and HEK293 cells stably expressing human RXFP1, were cultured in MEM medium supplemented with 10% qualified FBS, and 300 μg/ml hygromycin (Life Technologies). Cells were dissociated and suspended in assay buffer. The assay buffer was HBSS buffer (with calcium and magnesium) containing 20 mM HEPES, 0.05% BSA, and 0.5 mM IBMX. Cells (3000 cells per well, except 1500 cell per well for HEK293 cells stably expressing human RXFP1) were added to 384-well Proxiplates (Perkin-Elmer). Cells were immediately treated with test compounds in DMSO (2% final) at final concentrations in the range of 0.010 nM to 50 μM. Cells were incubated for 30 min at room temperature. The level of intracellular cAMP was determined using the HTRF HiRange cAMP assay reagent kit (Cisbio) according to manufacturer's instructions. Solutions of cryptate conjugated anti-cAMP and d2 fluorophore-labelled cAMP were made in a supplied lysis buffer separately. Upon completion of the reaction, the cells were lysed with equal volume of the d2-cAMP solution and anti-cAMP solution. After a 1 h room temperature incubation, time-resolved fluorescence intensity was measured using the Envision (Perkin-Elmer) at 400 nm excitation and dual emission at 590 nm and 665 nm. A calibration curve was constructed with an external cAMP standard at concentrations ranging from 2.7 μM to 0.1 μM by plotting the fluorescent intensity ratio from 665 nm emission to the intensity from the 590 nm emission against cAMP concentrations. The potency and activity of a compound to […] cAMP production was then determined by fitting to a 4-parametric logistic equation from a plot of cAMP level versus compound concentrations.
The examples disclosed below were tested in the human RXFP1 (hRXFP) HEK293 cAMP assay described above and found to have agonist activity. Tables 1-3, lists EC50 values in the hRXFP1 HEK293 cAMP assay measured for the examples.
Table A lists EC50 values in the hRXFP1 HEK293 cAMP assay measured for the examples.
For `COc1ccc(-c2nc3c(s2)CNCC3)cc1C(=O)Nc1cc2c(cc1C(=O)Nc1ccc(F)c(C(F)(F)F)c1)OC(F)(F)O2` [Example 52, 2,2-difluoro-N-(4-fluoro-3-(trifluoromethyl)phenyl)-6-(2-methoxy-5-(4,5,6,7-tetrahydrothiazolo[5,4-c]pyridin-2-yl)benzamido)benzo[d][1,3]dioxole-5-carboxamide], the EC50 stood at 683 nM. The value for `COc1ccc(-c2nc3c(s2)CN(CC(N)=O)CC3)cc1C(=O)Nc1cc2c(cc1C(=O)Nc1ccc(F)c(C(F)(F)F)c1)OC(F)(F)O2` [Example 53, 6-(5-(5-(2-amino-2-oxoethyl)-4,5,6,7-tetrahydrothiazolo[5,4-c]pyridin-2-yl)-2-methoxybenzamido)-2,2-difluoro-N-(4-fluoro-3-(trifluoromethyl)phenyl)benzo[d][1,3]dioxole-5-carboxamide] was 33 nM.

`COc1ccc(-c2cc(C(C)(C)O)on2)cc1C(=O)Nc1cc2c(cc1C(=O)Nc1ccc(F)c(C(F)(F)F)c1)OC(F)(F)O2` [Example 74]: the EC50 came out at 127 nM. The value for `CC(C)(C)NS(=O)(=O)c1ccc(F)c(-c2cc3c(c(C(=O)Nc4cc5c(cc4C(=O)Nc4ccc(F)c(C(F)(F)F)c4)OC(F)(F)O5)c2)OC(C)(C)C3)c1` [Example 101, 6-(5-(5-(N-(tert-butyl)sulfamoyl)-2-fluorophenyl)-2,2-dimethyl-2,3-dihydrobenzofuran-7-carboxamido)-2,2-difluoro-N-(4-fluoro-3-(trifluoromethyl)phenyl) benzo[d][1,3]dioxole-5-carboxamide] was 9.8 nM; that for `COc1ccc(N2CC(CN)CC2=O)cc1C(=O)Nc1cc2nc(C)sc2cc1C(=O)Nc1ccc(F)c(C(F)(F)F)c1` (stereo not drawn) [Example 21, 5-(5-(4-(ami-nomethyl)-2-oxopyrrolidin-1-yl)-2-meth-oxybenzami-do)-N-(4-fluoro-3-(tri-fluoromethyl)-phenyl)-2-methylbenzo [d]thiazole-6-carboxamide] was 4100 nM. The value for `COc1ccc(C2=NOC3CC(N)CC23)cc1C(=O)Nc1cc2c(cc1C(=O)Nc1ccc(F)c(C(F)(F)F)c1)OC(F)(F)O2` (single isomer, unassigned) [Example 50, 6-(5-(5-amino-3a,5,6,6a-tetrahydro-4H-cyclopenta[d]isoxazol-3-yl)-2-methoxybenzamido)-2,2-difluoro-N-(4-fluoro-3-(trifluoromethyl)phenyl)benzo[d][1,3]dioxole-5-carboxamide] was 98 nM; that for `COc1ccc(C2CC3(C2)CN(C(=O)C(C)(C)O)C3)cc1C(=O)Nc1cc2c(cc1C(=O)Nc1ccc(F)c(C(F)(F)F)c1)OC(F)(F)O2` [Example 97, 2,2-difluoro-N-(4-fluoro-3-(trifluoromethyl)phenyl)-6-(5-(2-(2-hydroxy-2-methylpropanoyl)-2-azaspiro[3.3]heptan-6-yl)-2-methoxybenzamido) benzo[d][1,3]dioxole-5-carboxamide] was 666 nM. The value for `COc1ccc(C2=NOC3C(O)CC(O)C23)cc1C(=O)Nc1cc2nc(C)sc2cc1C(=O)Nc1ccc(F)c(C(F)(F)F)c1` (stereo not drawn) [Example 7, 5-(5-(4,6-dihydroxy-3a,5,6,6a-tetra-hydro-4H-cyclopenta[d]isoxazol-3-yl)-2-methoxy-benzamido)-N-(4-fluoro-3-(trifluorometh-yl)phenyl)-2-methylbenzo [d]thiazole-6-carboxamide] was 31 nM. Regarding `COc1cc(F)c(C(=O)NCC2(S(C)(=O)=O)CC2)cc1C(=O)Nc1cc2c(cc1C(=O)Nc1ccc(F)c(C(F)(F)F)c1)OC(F)(F)O2` [Example 36, N1-(2,2-difluoro-6-((4-fluoro-3-(trifluoromethyl)phenyl)carbamoyl)benzo[d] [1,3]dioxol-5-yl)-4-fluoro-6-methoxy-N3-((1-(methylsulfonyl)cyclopropyl)methyl)iso-phthalamide], a half-maximal effect (EC50) was put at 14 nM. `COc1ccc(C2=NOC3COCC23)cc1C(=O)Nc1cc2c(cc1C(=O)Nc1ccc(F)c(C(F)(F)F)c1)OC(F)(F)O2` (stereo not drawn) [Example 79] had an EC50 of 275 nM. The value for `COc1ccc(C(=O)N2CCCC(CO)C2)cc1C(=O)Nc1cc2c(cc1C(=O)Nc1ccc(F)c(C(F)(F)F)c1)OC(F)(F)O2` (stereo not drawn) [Example 37, 2,2-difluoro-N-(4-fluoro-3-(trifluoromethyl)phenyl)-6-(5-(3-(hydroxymethyl)piperidine-1-carbonyl)-2-methoxybenzamido) benzo[d][1,3]dioxole-5-carboxamide] was 56 nM.

Molecule `COc1ccc(C2=NOC3CC(CO)CC23)cc1C(=O)Nc1cc2nc(C)sc2cc1C(=O)NC1CCCC1` (stereo not drawn) [Example 19, N-cyclopent-yl-5-(5-(5-(hydroxymeth-yl)-3a,5,6,6a-tetrahydro-4H-cyclopenta[d]isoxazol-3-yl)-2-methoxy-benzamido)-2-methylbenzo [d]thiazole-6-carboxamide] came in with an EC50 of 1000 nM. In turn, `COc1ccc(-c2nc(N3CCOCC3)no2)cc1C(=O)Nc1cc2c(cc1C(=O)Nc1ccc(F)c(C(F)(F)F)c1)OC(F)(F)O2` [Example 87, 2,2-difluoro-N-(4-fluoro-3-(trifluoromethyl)phenyl)-6-(2-methoxy-5-(3-morpholino-1,2,4-oxadiazol-5-yl)benzamido)benzo[d] [1,3]dioxole-5-carboxamide] came in with an EC50 of 161 nM. The value for `COc1ccc(C2=NOC3CN(CC(C)(C)O)CC23)cc1C(=O)Nc1cc2c(cc1C(=O)Nc1ccc(F)c(C(F)(F)F)c1)OC(F)(F)O2` (stereo not drawn) [Example 45, 2,2-difluoro-N-(4-fluoro-3-(trifluoromethyl)phenyl)-6-(5-(5-(2-hydroxy-2-methylpropyl)-3a,5,6,6a-tetrahydro-4H-pyrrolo[3,4-d]isoxazol-3-yl)-2-methoxybenzamido)benzo[d][1,3]dioxole-5-carboxamide] was 6 nM; that for `COc1ccc(-c2cc(C(NC(=O)C3CCOCC3)C(=O)O)ccc2F)cc1C(=O)Nc1cc2sc(C)nc2cc1C(=O)Nc1ccc(F)c(C(F)(F)F)c1` (single isomer, unassigned) [Example 30, 2-(6-fluoro-3′-((5-((4-fluoro-3-(trifluoromethyl)phenyl)carbamoyl)-2-methylbenzo[d]thiazol-6-yl)carbamoyl)-4′-methoxy-[1,1′-biphenyl]-3-yl)-2-(tetrahydro-2H-pyran-4-carboxamido)acetic acid] was 15 nM; that for `COc1cc(F)c(C2=NOC3CC(CO)CC23)cc1C(=O)Nc1cc2c(cc1C(=O)Nc1ccc(F)c(C(F)(F)F)c1)OC(F)(F)O2` (stereo not drawn) [Example 102, 2,2-difluoro-N-(4-fluoro-3-(trifluoromethyl)phenyl)-6-(4-fluoro-5-(5-(hydroxymethyl)-3a,5,6,6a-tetrahydro-4H-cyclopenta[d]isoxazol-3-yl)-2-methoxybenzamido) benzo[d][1,3]dioxole-5-carboxamide] was 10.6 nM. The value for `COc1ccc(C2=NOC3CC(O)CC23)cc1C(=O)Nc1cc2nc(C)sc2cc1C(=O)Nc1ccc(F)c(C(F)(F)F)c1` (single isomer, unassigned) [Example 24, N-(4-fluoro-3-(trifluoro-methyl)phen-yl)-5-(5-(5-hydroxy-3a,5,6,6a-tetrahydro-4H-cyclopenta [d]isoxazol-3-yl)-2-methoxy-benzamido)-2-methylbenzo [d]thiazole-6-carboxamide] was 750 nM; that for `COc1ccc(-c2cnc3n2CCNC3)cc1C(=O)Nc1cc2c(cc1C(=O)Nc1ccc(F)c(C(F)(F)F)c1)OC(F)(F)O2` [Example 62, 2,2-difluoro-N-(4-fluoro-3-(trifluoromethyl)phenyl)-6-(2-methoxy-5-(5,6,7,8-tetrahydroimidazo[1,2-a]pyrazin-3-yl)benzamido)benzo[d] [1,3]dioxole-5-carboxamide] was 646 nM.

One may read the EC50 as the concentration at which the effect is half-maximal. High values mean a less potent agent, low ones a more potent agent.
